# Measured values: patent publication EP4741414A1, “PEPTIDE HAVING CELL MEMBRANE PERMEABILITY AND SCREENING METHOD THEREFOR” (priority 2023, dated 2025)
# Primed or numbered codes have the meaning given here. No end group written: not given here. PEG8′ = PEG8 linker (eight-unit polyethylene glycol spacer); FAM = fluorescein amidite
# Experiments:
# A549 cells = test: Intracellular delivery of Alexa 647-labeled IgG-peptide conjugates to A549 cells; format: cell-based; conditions: for cell-type-selective plasma membrane-penetrating activity: A549 cells versus macrophages, 1 µM, FIG. 16; for intracellularly delivered amount into A549 cells: final concentration 1 µM, uptake time 1 h, compared with T001, T006 conjugates, FIG. 15
# Procedure: Cells 1 hour after the addition of the protein solution were observed and photographed with an all-in-one fluorescence microscope BZ-X810 (Keyence Corporation) in the same manner as in Experimental Example 14 except that A549 cells cultured in the same manner as in Experimental Example 11 were used, followed by image analysis with software BZ-X800 Analyzer included therein. The uptake ratios of the proteins at an uptake time of 1 hour, which were each determined from the ratio of the brightness (integrated) of a red color to the brightness (integrated) of a blue color, were compared to each other. The results are shown in FIG. 15 (in the figure, the height of a bar represents the average of "n" values (n=2 to 3) and an error bar represents its standard deviation).
# THP-1 macrophages = test: Intracellular delivery of Alexa 647-labeled IgG-peptide conjugates to THP-1 macrophages; format: cell-based; conditions: for intracellular delivery amount of IgG: final concentration 5 µM, versus IgG, FIG. 12, FIG. 13; for intracellular delivery amount of IgG / intracellularly delivered amount into macrophages: uptake time 1 h; for intracellularly delivered amount into macrophages: final concentration 1 µM, compared with R001, R005 conjugates, FIG. 14; for cell-type-selective plasma membrane-penetrating activity: macrophages versus A549 cells, 1 µM, FIG. 16
# Description: The reaction liquid was applied to a Zeba spin desalting column (7K MWCO) equilibrated with PBS, and an unreacted cross-linking agent was removed. Thus, an IgG fraction was recovered. The peptides (synthesized by Eurofins Genomics K.K., the amino acid sequences of the peptides that are each conjugated with the IgG are shown in the following table) obtained by the above-mentioned screening, the peptides each including an amino acid sequence and each having C at its N-terminal, were each dissolved in DMSO so that a 10 mM DMSO solution was obtained. The DMSO solution of the peptide whose molar amount was 5 times as large as that of the IgG was added to the recovered IgG fraction, and EDTA was further added to the mixture so that its final concentration was 1 mM, followed by stirring by inversion at 25°C for 1 hour. After that, a fivefold molar amount of cysteine was added to the mixture, and the whole was stirred by inversion at 25°C for 30 minutes. The reaction liquid was applied to a Zeba spin desalting column (7K MWCO) equilibrated with PBS, and the peptide and cysteine that were unreacted, and EDTA were removed. Thus, an IgG-peptide conjugate was recovered.
# The assay was conducted using THP-1 macrophages, which had been seeded in a 96-well plate at 20,000 cells/well, and had already been activated with PMA, IFN γ, and LPS. […] Images acquired with the all-in-one fluorescence microscope BZ-X810 (Keyence Corporation) were analyzed using the accompanying software BZ-X800 Analyzer. The uptake ratio at an uptake time of 1 h was compared based on the ratio of integrated red fluorescence intensity to integrated blue fluorescence intensity.
# The uptake ratios of the proteins at an uptake time of 1 hour, which were each determined from the ratio of the brightness (integrated) of a red color to the brightness (integrated) of a blue color, were compared to each other.
# [1] = test system: three-dimensional skin model EpiDerm Full Thickness 400
# Procedure: A three-dimensional skin model EpiDerm Full Thickness 400 was prepared in accordance with the manual of its manufacturer in the same manner as in Experimental Example 8. […] As a control, the known cell-penetrating peptide TAT (the sequence obtained by removing C at the N-terminal from the amino acid sequence shown in SEQ ID NO: 51) was used, and the N-terminal side thereof was modified with FAM (similarly synthesized by Eurofins Genomics K.K., theoretical molecular weight: 1,979.2).
# 100 Microliters of a 1% DMSO-containing PBS solution of each of the FAM-modified peptides was added to a central portion on the donor side of a cup in which the skin model was built to initiate the penetrability assay (n=3). After incubation at 37 °C under 5% CO2 for 24 h, the medium outside the cup was collected, and the concentration of peptide that penetrated the skin model was quantified fluorometrically using a microplate reader (TECAN Spark; excitation wavelength: 494 nm, emission wavelength: 521 nm).
substance,measurement,setting,value
CGGSRVVSYLAEYH [R005],cell-type-selective plasma membrane-penetrating activity,A549 cells,cell-type-selective plasma membrane-penetrating activity in A549 cells
same,intracellularly delivered amount into A549 cells,A549 cells,greater increase in the intracellularly delivered amount into A549 cells
CGKEGGSRWLIFHYMLLGG [T005],intracellular delivery amount of IgG,THP-1 macrophages,increased the intracellular delivery amount of IgG
CLFKAWLGVYH [R001],cell-type-selective plasma membrane-penetrating activity,A549 cells,cell-type-selective plasma membrane-penetrating activity in A549 cells
same,intracellularly delivered amount into A549 cells,A549 cells,greater increase in the intracellularly delivered amount into A549 cells
CRWPLWMWFVW [T001],intracellularly delivered amount into macrophages,THP-1 macrophages,greater increase in the intracellularly delivered amount into macrophages
same,intracellular delivery amount of IgG,THP-1 macrophages,increased the intracellular delivery amount of IgG
same,cell-type-selective plasma membrane-penetrating activity,THP-1 macrophages,cell-type-selective plasma membrane-penetrating activity in macrophages
CRYYAHWLHYM [T006],intracellularly delivered amount into macrophages,THP-1 macrophages,greater increase in the intracellularly delivered amount into macrophages
same,intracellular delivery amount of IgG,THP-1 macrophages,increased the intracellular delivery amount of IgG
same,cell-type-selective plasma membrane-penetrating activity,THP-1 macrophages,cell-type-selective plasma membrane-penetrating activity in macrophages
"CYGRKKRRQRRR (CYGRKKRRQRRR-NH2; also: conjugated to Alexa 647-IgG via maleimide-PEG2-NHS) [TAT, Alexa 647-labeled IgG bonded with known membrane-permeable peptide TAT via Maleimide-PEG2-NHS Ester, reference compound]",intracellular delivery amount of IgG,THP-1 macrophages,no increase in cellular translocation was observed
FAM-labeled SEQ ID NO: 40 peptide: N-terminal side of the peptide represented by SEQ ID NO: 40 modified with fluorescein amidite (FAM) through a PEG8 linker ({FAM-PEG8′}-RWNCVSCAFL; cysteine pairing not given here),penetrability (ratio of penetrated amount outside the cup to added amount),[1],49.8±10.0%
